This note sets out measurements from publication PMC4105438, “Novel Benzoxazine-Based Aglycones Block Glucose Uptake In Vivo by Inhibiting Glycosidases” (PLoS ONE, 2014).

As usually defined, the IC50 is the concentration that gives 50% inhibition. High values mean lower potency, low ones higher potency. For orientation: melting point means the temperature, or range, at which the solid turns liquid.

The target of series [1] is T1, Porcine pancreatic α-amylase (Sus scrofa, UniProt P00690).
T1 construct: purchased SRL, Mumbai (India)
T1 sequence (P00690 16-511): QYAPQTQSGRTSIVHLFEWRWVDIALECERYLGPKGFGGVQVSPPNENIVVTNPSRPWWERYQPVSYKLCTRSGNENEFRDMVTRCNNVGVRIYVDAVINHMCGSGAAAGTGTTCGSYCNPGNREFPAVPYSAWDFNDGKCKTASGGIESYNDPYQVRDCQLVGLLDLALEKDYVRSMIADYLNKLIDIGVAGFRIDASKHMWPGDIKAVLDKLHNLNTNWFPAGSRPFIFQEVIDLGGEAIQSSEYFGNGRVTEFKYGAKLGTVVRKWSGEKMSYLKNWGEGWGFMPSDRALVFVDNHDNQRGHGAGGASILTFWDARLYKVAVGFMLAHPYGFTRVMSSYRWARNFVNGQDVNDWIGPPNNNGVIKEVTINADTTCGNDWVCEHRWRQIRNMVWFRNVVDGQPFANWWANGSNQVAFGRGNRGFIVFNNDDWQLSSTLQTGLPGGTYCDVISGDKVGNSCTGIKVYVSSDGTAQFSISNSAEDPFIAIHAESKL
Nature of the series: α-amylase inhibition assay (starch, DNS reagent). It is filed as biochemical. Conditions: 0–100 µM, pre-incubation 10 min 37°C, pH 6.9; NS = not significant. On the procedure:
Porcine pancreatic α-Amylase and Yeast α-Glucosidase were purchased from SRL, Mumbai (India). Glucose oxidase (GOD POD) kit was purchased from Piramal HealthCare Ltd, Mumbai (India). All other chemicals used were of analytical grade and purchased from Sigma Aldrich, St. Louis (USA) and SRL, Mumbai (India). […] Mass spectra were determined on a Shimadzu LC-MS. The elemental analyses were carried out using an Elemental Vario Cube CHNS rapid Analyzer. The progress of the reaction was monitored by TLC pre-coated silica gel G plates.
The α-amylase inhibition assay was performed according to a previous report. Porcine pancreatic α-amylase (3 units/mL) was dissolved in 0.1 M phosphate buffered saline, pH 6.9. […] The reaction was initiated by adding substrate solution (0.1% starch) to the incubation medium. After 10 min incubation, the reaction was stopped by adding 250 µL dinitrosalicylic (DNS) reagent (1% 3, 5-dinitrosalicylic acid, 0.2% phenol, 0.05% Na2SO3 and 1% NaOH in aqueous solution) to the reaction mixture. The reaction was terminated by keeping the reaction mixture in boiling water bath for 10 min. Thereafter, 250 µL of 40% potassium sodium tartarate solution was added to the mixtures to stabilize the colour. After cooling to room temperature in a cold water bath, the absorbance was recorded at 540 nm using a Varioskan multimode plate reader (Thermo Scientifics, USA). Acrabose was used as positive control. The percentage of inhibition was calculated using Abs Contol – Abs Sample ×100/Abs Control. Where Abs Control was the absorbance without sample, Abs sample was the absorbance of enzyme with compound.

The next series deals with T2, α-Glucosidase (Saccharomyces cerevisiae, UniProt P53341).
T2 construct: purchased SRL, Mumbai (India)
Nature of the series: biochemical. Conditions: 0–100 µM, pre-incubation 10 min 37°C, pH 6.9; NS = not significant. On the procedure:
Porcine pancreatic α-Amylase and Yeast α-Glucosidase were purchased from SRL, Mumbai (India). Glucose oxidase (GOD POD) kit was purchased from Piramal HealthCare Ltd, Mumbai (India). All other chemicals used were of analytical grade and purchased from Sigma Aldrich, St. Louis (USA) and SRL, Mumbai (India). All IR spectra were obtained in KBr disc on a Shimadzu FT-IR 157 Spectrometer. ^1H and ^13C NMR spectra were recorded on a Bruker WH-200 (400 MZ) spectrometer in CDCl3 or DMSO-d6 as solvent, using TMS as an internal standard and chemical shifts are expressed as ppm. Mass spectra were determined on a Shimadzu LC-MS. The elemental analyses were carried out using an Elemental Vario Cube CHNS rapid Analyzer. The progress of the reaction was monitored by TLC pre-coated silica gel G plates.
The α-glucosidase inhibitory activities of synthesized compounds were evaluated using the method developed by Tsujii et al.. Briefly, α-glucosidase was dissolved in phosphate buffer (50 mM, pH 6.9) and pre-treated with various concentrations of 1,3-benzoxazine derivatives (0–100 µM) independently for 10 min at 37°C. The reaction was initiated by the addition of 50 µL of 5 mM p-nitrophenyl- α -D-glucopyranoside solution in phosphate buffer (50 mM, pH 6.9). The enzyme reaction was carried out at 37°C for 30 min. The reaction was terminated by the addition of Na2CO3 (1 M). The enzymatic activity of α-glucosidase was quantified by measuring the absorption at 405 nm using a Varioskan multimode plate reader (Thermo Scientifics, USA). The inhibitory effect of compounds was defined as inhibitory activity (%) = (Abs Control – Abs Compound treated)/Abs Control ×100. Concentration-response assays were used to determine the potency (IC50) of 1,3-benzoxazine derivatives based on the logistic analysis of the concentration-response curve using Microsoft Excel.

The subject of the next series is porcine diaphragm. Nature of the series: Glucose uptake study in porcine diaphragm. Conditions: 50 and 100 µM, with and without insulin (1 U), 5 mM glucose. As for the experimental part: Porcine diaphragm was purchased from a slaughter house, and cleaned using ice cold 0.9% saline several times to remove blood stains. This diaphragm was used for glucose uptake and inhibition by compound 7. Diaphragm (100 mg) was suspended in a 24 well culture plate containing 500 µL saline. In order to initiate the reaction, 5 mM glucose was added to each well. To enhance the glucose uptake by the diaphragm, 1 unit of insulin was used in each well, and the volume was made up to 1 ml with saline. For inhibition studies, compound 7 at a concentration of 50 & 100 µM was used. From each well 100 µL of the assay mixture was aspirated at different time intervals (0, 5, 10, 20, 30 and 60 min). From this, glucose concentration was measured using Glucose oxidase (GOD POD) kit according to the manufacturer’s protocol.

A further series addresses T3, rat intestinal sucrase (Rattus norvegicus, UniProt P23739).
T3 construct: the supernatant obtained was used as enzyme source; tissue Sigma Aldrich, St. Louis (USA); host or cells: rat intestinal acetone powder (supernatant of the saline homogenate)
Nature of the series: Intestinal α-glucosidase inhibitory assay, sucrose as substrate. It is filed as biochemical. On the procedure:
(§1) Intestinal α-glucosidase activity was determined by measuring the amount of glucose hydrolyzed from maltose or sucrose. Briefly, rat intestinal acetone powder was homogenized in 0.9% saline and the suspension was centrifuged at 10,000 g for 30 min at 4°C and the supernatant obtained was used as enzyme source. […] After the respective incubation period, reaction was terminated by keeping the samples in boiling water bath for 10 min. The concentration of glucose released from the reaction mixtures was determined by using Glucose oxidase (GOD POD) kit according to the manufacturer’s protocol. Results were expressed as percentage inhibition of intestinal maltase/sucrase activity.

The test system of series [2] is overnight fasted Wistar rats. Briefly: Oral maltose tolerance test. Type of series: in vivo, rat. An excerpt:
(§2) Adult Wistar rats weighing 150–180 g were collected from the University Central Animal Facility and housed under a controlled environment. All animal experiments were approved by the Institutional Animal Ethical Committee (Order No : MGZ/2620/2011-12 Dated 31-01-2012; UOM/IAEC/18/2011), Department of Studies in Zoology, University of Mysore, Mysore and were in accordance with the guidelines of the Committee for the Purpose of Control and Supervision of Experiments on Animals (CPCSEA).
(§3) The experimental animals were randomly divided into 11 groups each consisting of 5 rats. […] Blood was collected from the tail vein to the tubes containing anticoagulant (2.5% trisodium citrate and 1.37% citric acid in the ratio 1∶5; anti-coagulant: blood) at time point 0 (just before sucrose/maltose administration), and subsequently at 30, 60, 90, 120 and 180 min after substrate (sucrose/maltose) administration. Plasma was separated by centrifuging the samples at 2000 rpm for 10 min and stored at −20°C until analysis. Plasma glucose concentration was determined by using the Glucose oxidase (GOD POD) kit according to the manufacturer’s protocol.

The subject of the next series is rat intestinal maltase. Briefly: Intestinal α-glucosidase inhibitory assay, maltose as substrate. Type of series: biochemical. On the procedure: as §1
Series [3] deals with overnight fasted Wistar rats. Briefly: Oral sucrose tolerance test. Type of series: in vivo, rat.
Excerpt: as §2, §3

T3 sequence (P23739 whole entry): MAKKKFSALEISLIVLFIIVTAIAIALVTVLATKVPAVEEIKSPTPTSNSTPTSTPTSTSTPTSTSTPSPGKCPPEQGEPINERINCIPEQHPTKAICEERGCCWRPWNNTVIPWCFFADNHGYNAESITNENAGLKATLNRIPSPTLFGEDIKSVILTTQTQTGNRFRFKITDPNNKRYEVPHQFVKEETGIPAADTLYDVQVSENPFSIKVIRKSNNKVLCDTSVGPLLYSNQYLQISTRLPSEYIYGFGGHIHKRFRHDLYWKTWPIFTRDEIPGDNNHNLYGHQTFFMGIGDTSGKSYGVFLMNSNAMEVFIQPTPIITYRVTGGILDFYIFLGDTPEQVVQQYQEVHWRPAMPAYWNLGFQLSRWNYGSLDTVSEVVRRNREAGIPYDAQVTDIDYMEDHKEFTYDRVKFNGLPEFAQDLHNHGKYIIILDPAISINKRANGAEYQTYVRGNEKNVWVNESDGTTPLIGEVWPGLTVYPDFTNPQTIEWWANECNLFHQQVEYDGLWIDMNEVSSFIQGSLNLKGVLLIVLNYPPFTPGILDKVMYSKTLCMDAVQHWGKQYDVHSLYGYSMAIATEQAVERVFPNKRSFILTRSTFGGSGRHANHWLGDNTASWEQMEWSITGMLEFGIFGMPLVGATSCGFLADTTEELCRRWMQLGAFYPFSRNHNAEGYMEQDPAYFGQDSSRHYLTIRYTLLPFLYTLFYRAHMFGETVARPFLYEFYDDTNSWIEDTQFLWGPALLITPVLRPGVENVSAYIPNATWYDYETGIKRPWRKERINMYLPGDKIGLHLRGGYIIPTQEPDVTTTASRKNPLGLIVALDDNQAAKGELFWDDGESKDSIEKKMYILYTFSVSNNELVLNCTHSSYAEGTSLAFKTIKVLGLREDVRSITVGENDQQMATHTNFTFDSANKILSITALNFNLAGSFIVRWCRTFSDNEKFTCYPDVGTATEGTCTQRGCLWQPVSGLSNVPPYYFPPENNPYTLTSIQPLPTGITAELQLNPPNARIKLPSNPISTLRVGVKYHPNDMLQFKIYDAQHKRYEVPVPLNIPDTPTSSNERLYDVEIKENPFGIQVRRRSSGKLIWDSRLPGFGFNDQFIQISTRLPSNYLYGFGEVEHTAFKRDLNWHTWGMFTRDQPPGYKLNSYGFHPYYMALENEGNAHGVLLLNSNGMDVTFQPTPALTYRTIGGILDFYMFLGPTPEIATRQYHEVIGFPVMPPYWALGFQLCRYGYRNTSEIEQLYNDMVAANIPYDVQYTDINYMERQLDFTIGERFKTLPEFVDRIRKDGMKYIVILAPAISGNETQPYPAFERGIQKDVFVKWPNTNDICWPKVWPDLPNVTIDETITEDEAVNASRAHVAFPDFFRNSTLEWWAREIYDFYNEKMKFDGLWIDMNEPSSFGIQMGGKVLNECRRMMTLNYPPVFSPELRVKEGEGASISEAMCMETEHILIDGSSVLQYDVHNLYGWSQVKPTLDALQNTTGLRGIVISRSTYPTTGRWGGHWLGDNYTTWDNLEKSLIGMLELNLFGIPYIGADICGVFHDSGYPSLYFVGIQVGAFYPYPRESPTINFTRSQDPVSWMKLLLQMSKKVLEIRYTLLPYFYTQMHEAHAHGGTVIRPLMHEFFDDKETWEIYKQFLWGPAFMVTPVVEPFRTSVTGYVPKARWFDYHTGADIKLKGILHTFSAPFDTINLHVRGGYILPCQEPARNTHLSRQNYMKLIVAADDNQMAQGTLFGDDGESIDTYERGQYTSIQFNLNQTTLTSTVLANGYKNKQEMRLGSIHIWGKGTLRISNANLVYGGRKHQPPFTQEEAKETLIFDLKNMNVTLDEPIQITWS
T2 sequence (P53341 whole entry): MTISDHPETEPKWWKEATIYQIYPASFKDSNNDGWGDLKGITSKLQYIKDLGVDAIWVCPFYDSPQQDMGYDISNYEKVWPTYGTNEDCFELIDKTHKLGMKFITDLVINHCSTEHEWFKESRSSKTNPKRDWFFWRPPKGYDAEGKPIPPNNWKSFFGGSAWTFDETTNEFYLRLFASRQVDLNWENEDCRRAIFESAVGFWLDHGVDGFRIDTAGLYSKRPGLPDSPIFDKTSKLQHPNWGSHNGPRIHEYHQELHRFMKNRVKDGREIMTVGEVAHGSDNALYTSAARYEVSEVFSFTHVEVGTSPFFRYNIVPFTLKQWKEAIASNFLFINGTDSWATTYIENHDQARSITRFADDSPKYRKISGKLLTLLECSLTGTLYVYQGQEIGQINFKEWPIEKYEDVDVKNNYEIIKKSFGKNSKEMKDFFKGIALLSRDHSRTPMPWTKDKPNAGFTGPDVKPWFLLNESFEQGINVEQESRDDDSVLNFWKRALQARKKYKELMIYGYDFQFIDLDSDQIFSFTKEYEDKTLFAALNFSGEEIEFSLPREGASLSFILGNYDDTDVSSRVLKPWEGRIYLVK

On to `Oc1ccc(C2Nc3cc(Cl)ccc3CO2)cc1` (stereo not shown) [compound 7, 4-(7-chloro-2,4-dihydro-1H-benzo[d][1,3]oxazin-2-yl)phenol], for which the melting point was in the range of 139 to 141 °C. Moreover, in series [1], the midpoint of inhibition, the IC50, lay at 11 ± 0.3 µM. The midpoint of inhibition against α-Glucosidase, the IC50, lay at 11.5 ± 0.1 µM. The “glucose uptake by diaphragm” value in the series with porcine diaphragm is “significantly blocked the glucose uptake both in control and insulin treated diaphragm in a dose-dependent manner”. Also, at rat intestinal sucrase (compound 7 5–25 µM), the “percentage inhibition of intestinal sucrase” value is recorded as “dose-dependent manner”. Further, the IC50 on rat intestinal sucrase (rat intestinal acetone powder, sucrose 56 mM, 60 min) stood at 20 µM. Moreover, the plasma glucose concentration entry in series [2] (50 mg/kg oral, maltose 3 g/kg, 90 min, compared to acarbose) is listed as “significantly reduced plasma glucose concentration at the 90 min time point compared to acarbose”. In series [2] (100 mg/kg oral, maltose 3 g/kg, compared to acarbose standard), the plasma glucose concentration result is reported as “significantly more effective than the acarbose standard at all time points”. The plasma glucose concentration entry in series [2] (compound 7 50 mg/kg together with acarbose 3 mg/kg, maltose, up to 180 min, compared to saline group) is “plasma glucose concentration remained unchanged when compared to the saline treated group”. Further, the “percentage inhibition of intestinal maltase in presence of acarbose” value in the series on rat intestinal maltase (5 µM acarbose with compound 7 1–10 µM, compared with intestinal sucrase) is “synergistically inhibited intestinal maltase more efficiently compared to intestinal sucrase”. The “percentage inhibition of intestinal maltase” value in the series with rat intestinal maltase (compound 7 5–25 µM) was “dose-dependent manner”. In addition, on rat intestinal maltase (rat intestinal acetone powder, maltose 37 mM, 30 min), the IC50 was 10 µM. Further, the “selectivity for maltase over sucrase” value in the series with rat intestinal maltase (ratio of IC50 values, rat intestinal enzymes) is listed as “two-fold selective for maltase”. For the same molecule, the plasma glucose concentration entry in series [3] (50 mg/kg oral, sucrose 3 g/kg, 0–180 min, compared to acarbose treated group) was “significantly reduced the plasma glucose concentration throughout all time points”. Besides, in series [3] (100 mg/kg oral, sucrose 3 g/kg, compared to acarbose standard), the plasma glucose concentration entry is reported as “significantly more effective than the acarbose standard at all time points”. In addition, the plasma glucose concentration entry in series [3] (compound 7 50 mg/kg together with acarbose 3 mg/kg, sucrose, up to 180 min, compared to saline group) is “plasma glucose concentration remained unchanged when compared to the saline treated group”.
